From PMC6013238, “Development of novel NEMO-binding domain mimetics for inhibiting IKK/NF-κB activation” (PLoS Biology, 2018)
Blank lines part the entries; values can stand above or below the compound they belong to.

Key:
[1] = system: p-IκBα (IKK kinase activity); assay: Western blot of p-IκBα after TNF-α in HEK293 cells; format: cell-based, human; conditions: 100 μM, 30 min pretreatment, TNF-α 10 ng/ml 0, 5, 10 min
Description: (§1) To confirm that the NBD mimetics reduce IKK kinase activity, phosphorylation of IκBα by IKK in response to 10 ng/ml of TNF-α was measured by western blot at 0, 5, and 10 min after stimulation. […] To determine whether the mimetics also reduce NF-κB DNA binding activity, electrophoretic mobility shift assay (EMSA) was conducted both in vitro and in vivo. […] The addition of acetonitrile increased the stability of both ZINC compounds, especially ZINC 5 (Fig 3D).
Fig 3 Two identified small molecules reduce NF-κB DNA binding activity in vivo and in vitro. (A) Levels of p-IκBα with or without treatment in response to TNF-α were determined by western blot analysis. HEK293 cells were pretreated with DMSO, ZINC12909780 (100 μM), and ZINC5 (100 μM) for 30 min followed by the stimulation of 10 ng/ml of TNF-α for 0, 5, and 10 min. […]
Cell lysate was prepared in RIPA buffer (20 mM Tris-HCl [pH 7.5], 150 mM NaCl, 1 mM Na^2EDTA, 1 mM EGTA, 1% NP-40, 1% sodium deoxycholate, 2.5 mM sodium pyrophosphate, 1 mM beta-glycerophosphate, 1 mM Na3VO4, and 1 μg/ml leupeptin), supplemented with 1X protease inhibitor cocktails (MilliporeSigma, St. Louis, MO) and 1X Halt phosphatase inhibitor cocktail (ThermoFisher, Waltham, MA). Protein concentrations were determined by Lowry protein assays, and 30 μg of protein was resolved by MINI-PROTEAN TGX 4%–15% SDS-PAGE gels. […]

[2] = Stability time course in FBS media with or without acetonitrile; format: in vitro ADME
Description: as §1
Fig 3 Two identified small molecules reduce NF-κB DNA binding activity in vivo and in vitro. (A) Levels of p-IκBα with or without treatment in response to TNF-α were determined by western blot analysis. HEK293 cells were pretreated with DMSO, ZINC12909780 (100 μM), and ZINC5 (100 μM) for 30 min followed by the stimulation of 10 ng/ml of TNF-α for 0, 5, and 10 min. Cell lysates were prepared for immunoblot against p-IκBα. GAPDH was used as a loading control. (B) EMSA analysis detecting NF-κB DNA binding activity was performed in C2C12 myoblasts. Cells were pretreated with 200 μM of DMSO, ZINC12909780, and ZINC5 in serum-free media for 1 h. TNF-α was then added to a final concentration of 10 ng/ml and incubated for 15 min. Nuclear extract was obtained for EMSA analysis. (C) EMSA analysis assessing NF-κB DNA binding activity in vivo was performed with quadriceps from mdx mice. Single-dose ZINC12909780 and ZINC5 at 10 mg/kg was given by i.p. Quadriceps was harvested at 1 h and 2 h post injection for EMSA analysis. (D) The time-course pharmacokinetics of ZINC5 and ZINC12909780 in FBS media or FBS media containing acetonitrile. Underlying data can be found in S1 Data. EMSA, electrophoretic mobility shift assay; HEK293, human embryonic kidney 293 cells; i.p., intraperitoneal; NF-κB, nuclear factor κB; t1/2, half-life; TNF-α; tumor necrosis factor α.

Compound: O=C(COC(=O)Cc1ccccc1F)Nc1ccc(Cl)cn1 [ZINC5]
Level of p-IκBα following TNF-α stimulation [1]: reduced the level of p-IκBα | Stability in cell culture media containing FBS [2]: extremely unstable | t1/2 ([2]; FBS-media): 1.5 h | t1/2 ([2]; FBS-media+acetonitrile): 10.8 h | % remaining ([2]; fbs-media+acetonitrile, 15 min): 77.2% | % remaining ([2]; fbs-media+acetonitrile, 30 min): 85.8% | % remaining ([2]; fbs-media+acetonitrile, 60 min): 86.3% | % remaining ([2]; fbs-media+acetonitrile, 240 min): 69.4% | % remaining ([2]; fbs-media, 15 min): 90.8% | % remaining ([2]; fbs-media, 30 min): 79.8% | % remaining ([2]; fbs-media, 60 min): 61.8% | % remaining ([2]; fbs-media, 240 min): 16.4%

Stability in cell culture media containing FBS [2]: relatively more stable | remaining at 0.25 h ([2]; bovine, FBS media containing acetonitrile, fbs-media+acetonitrile, 15 min): 94.8% | remaining at 0.5 h ([2]; bovine, FBS media containing acetonitrile, fbs-media+acetonitrile, 30 min): 103% | remaining at 1 h ([2]; bovine, FBS media containing acetonitrile, fbs-media+acetonitrile, 60 min): 106% | remaining at 4 h ([2]; bovine, FBS media containing acetonitrile, fbs-media+acetonitrile, 240 min): 104% | half-life ([2]; bovine, cell culture media containing FBS, FBS-media): 15 h | remaining at 0.25 h ([2]; bovine, cell culture media containing FBS, fbs-media, 15 min): 101% | remaining at 0.5 h ([2]; bovine, cell culture media containing FBS, fbs-media, 30 min): 105% | remaining at 1 h ([2]; bovine, cell culture media containing FBS, fbs-media, 60 min): 92% | remaining at 4 h ([2]; bovine, cell culture media containing FBS, fbs-media, 240 min): 85%
Compound: Nc1ncccc1C(=O)OCC(=O)Nc1ccc(Cl)cc1F [ZINC12909780]
Level of p-IκBα following TNF-α stimulation [1]: less robust reduction
